Measured values as given in patent publication US20220370440A1 (Lead Discovery Center GmbH, priority 2018, published 2022).
pIC50: −log10 of the molar value.

Key:
[1] = target: Her2 Exon 20 INSYVMA Ba/F3 (Homo sapiens, UniProt P04626, DUP772-775, cells depend on it); assay: Her2 Exon 20 INSYVMA Ba/F3 CellTiter-Glo; assay type: cell-based; details: CellTiter-Glo, 72 h, read-out: Her2 Exon 20 INSYVMA Ba/F3 CTG IC50
Method in brief: (§1)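 Ba/F3 cells were seeded, left 24 h at 37 °C/5% CO2, then exposed to compound dilutions in DMSO for 72 h. Viability was read as ATP luminescence (CellTiter-Glo) and IC50 fitted from dose–response curves; DMSO and 10 μM staurosporine defined the controls, and plates needed Z′ ≥0.5.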

[2] = Metabolic stability in mouse liver microsomes without cofactor NADPH; assay type: in vitro ADME; details: 3 μM test compound, mouse liver microsomes, without NADPH, 50 min, 37° C., LC-MS/MS
Source text: There are two major groups of enzyme reactions catalyzed by drug metabolizing enzymes, the so called Phase I and Phase II reactions. The basic processes in phase I reactions are oxidation, reduction and/or hydrolysis mostly catalyzed by the cytochrome P450 (CYP) family of enzymes.
The following procedures describe the determination of the in vitro Phase I metabolic stability of test compounds using liver microsomes by measuring compound depletion over time. Test compound at the concentration of 3 μM was incubated with the liver microsomes from the mouse species and the experiment was performed without NADPH. The depletion of the test compounds was measured over time up to 50 minutes at 37° C. by LC-MS/MS. Different compounds were tested under these conditions for microsomal stability (see Table 5).

EGFR wt = EGFR wt (Homo sapiens, UniProt P00533); assay: EGFR wt Lance assay; assay type: biochemical
Chain of EGFR wt (P00533 25-1210): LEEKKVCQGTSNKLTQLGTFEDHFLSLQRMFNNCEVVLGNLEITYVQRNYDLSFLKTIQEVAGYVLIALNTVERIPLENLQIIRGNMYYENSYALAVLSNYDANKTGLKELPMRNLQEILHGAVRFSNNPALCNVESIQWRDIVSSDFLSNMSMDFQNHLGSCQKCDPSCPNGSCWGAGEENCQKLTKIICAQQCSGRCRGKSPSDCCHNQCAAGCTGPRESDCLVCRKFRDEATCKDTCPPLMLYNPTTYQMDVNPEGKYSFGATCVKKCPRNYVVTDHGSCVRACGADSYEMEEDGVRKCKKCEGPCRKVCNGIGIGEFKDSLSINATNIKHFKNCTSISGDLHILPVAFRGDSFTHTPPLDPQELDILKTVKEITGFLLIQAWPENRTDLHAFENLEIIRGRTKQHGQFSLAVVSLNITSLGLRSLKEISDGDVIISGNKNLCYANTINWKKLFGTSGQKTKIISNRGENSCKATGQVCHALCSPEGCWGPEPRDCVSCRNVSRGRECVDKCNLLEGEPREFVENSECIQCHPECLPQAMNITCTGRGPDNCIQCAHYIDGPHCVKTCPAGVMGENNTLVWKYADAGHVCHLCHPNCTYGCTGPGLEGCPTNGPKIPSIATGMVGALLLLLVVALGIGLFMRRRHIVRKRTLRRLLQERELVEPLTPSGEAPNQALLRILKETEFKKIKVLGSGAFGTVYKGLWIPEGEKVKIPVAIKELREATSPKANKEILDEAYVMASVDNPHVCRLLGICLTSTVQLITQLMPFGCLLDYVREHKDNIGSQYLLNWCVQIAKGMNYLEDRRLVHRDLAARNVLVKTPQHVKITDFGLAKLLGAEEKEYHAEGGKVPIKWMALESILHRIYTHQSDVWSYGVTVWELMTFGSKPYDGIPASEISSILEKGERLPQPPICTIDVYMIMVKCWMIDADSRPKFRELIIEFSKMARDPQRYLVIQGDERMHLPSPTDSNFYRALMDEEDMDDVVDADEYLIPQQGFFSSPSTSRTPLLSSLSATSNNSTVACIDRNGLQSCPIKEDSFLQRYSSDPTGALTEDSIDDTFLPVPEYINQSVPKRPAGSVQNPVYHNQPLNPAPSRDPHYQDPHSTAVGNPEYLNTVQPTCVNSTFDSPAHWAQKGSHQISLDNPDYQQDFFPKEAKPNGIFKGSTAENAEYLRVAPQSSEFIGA
Description: (§2) Inhibition is indicated as […] [nM] (“−”=not measured). Compounds having an activity designated as “A” provided an IC50≤100 nM; compounds having an activity designated as “B” provided an 100 nM<IC50≤500 nM; compounds having an activity designated as “C” provided an 500 nM<IC50≤1000 nM; compounds having an activity designated as “D” provided an 1000 nM<IC50≤100000 nM; and compounds having an activity designated as “E” provided an IC50>10000 nM.

H1975 = H1975 CellTiter-Glo; assay type: cell-based; details: Homo sapiens, NCI-H1975; 72 h compound incubation; read-out: H1975 CTG IC50
Method in brief: (§3)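 Cells were seeded, left 24 h at 37° C. and 5% CO2, then exposed to compounds in DMSO at different concentrations for a further 72 h. Viability was read as ATP-dependent luminescence (CellTiter-Glo), and IC50 values were obtained from dose-response fits against DMSO and 10 μM Staurosporine controls.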

[3] = target: EGFR Exon 20 INSNPH Ba/F3 (Homo sapiens, UniProt P00533, DUP771-773, cells depend on it); assay: EGFR Exon 20 INSNPH Ba/F3 CellTiter-Glo; assay type: cell-based; details: CellTiter-Glo, 72 h, read-out: EGFR Exon 20 INSNPH Ba/F3 CTG IC50
Chain of EGFR Exon 20 INSNPH Ba/F3 (P00533 with tags, fused parts or gaps DUP771-773): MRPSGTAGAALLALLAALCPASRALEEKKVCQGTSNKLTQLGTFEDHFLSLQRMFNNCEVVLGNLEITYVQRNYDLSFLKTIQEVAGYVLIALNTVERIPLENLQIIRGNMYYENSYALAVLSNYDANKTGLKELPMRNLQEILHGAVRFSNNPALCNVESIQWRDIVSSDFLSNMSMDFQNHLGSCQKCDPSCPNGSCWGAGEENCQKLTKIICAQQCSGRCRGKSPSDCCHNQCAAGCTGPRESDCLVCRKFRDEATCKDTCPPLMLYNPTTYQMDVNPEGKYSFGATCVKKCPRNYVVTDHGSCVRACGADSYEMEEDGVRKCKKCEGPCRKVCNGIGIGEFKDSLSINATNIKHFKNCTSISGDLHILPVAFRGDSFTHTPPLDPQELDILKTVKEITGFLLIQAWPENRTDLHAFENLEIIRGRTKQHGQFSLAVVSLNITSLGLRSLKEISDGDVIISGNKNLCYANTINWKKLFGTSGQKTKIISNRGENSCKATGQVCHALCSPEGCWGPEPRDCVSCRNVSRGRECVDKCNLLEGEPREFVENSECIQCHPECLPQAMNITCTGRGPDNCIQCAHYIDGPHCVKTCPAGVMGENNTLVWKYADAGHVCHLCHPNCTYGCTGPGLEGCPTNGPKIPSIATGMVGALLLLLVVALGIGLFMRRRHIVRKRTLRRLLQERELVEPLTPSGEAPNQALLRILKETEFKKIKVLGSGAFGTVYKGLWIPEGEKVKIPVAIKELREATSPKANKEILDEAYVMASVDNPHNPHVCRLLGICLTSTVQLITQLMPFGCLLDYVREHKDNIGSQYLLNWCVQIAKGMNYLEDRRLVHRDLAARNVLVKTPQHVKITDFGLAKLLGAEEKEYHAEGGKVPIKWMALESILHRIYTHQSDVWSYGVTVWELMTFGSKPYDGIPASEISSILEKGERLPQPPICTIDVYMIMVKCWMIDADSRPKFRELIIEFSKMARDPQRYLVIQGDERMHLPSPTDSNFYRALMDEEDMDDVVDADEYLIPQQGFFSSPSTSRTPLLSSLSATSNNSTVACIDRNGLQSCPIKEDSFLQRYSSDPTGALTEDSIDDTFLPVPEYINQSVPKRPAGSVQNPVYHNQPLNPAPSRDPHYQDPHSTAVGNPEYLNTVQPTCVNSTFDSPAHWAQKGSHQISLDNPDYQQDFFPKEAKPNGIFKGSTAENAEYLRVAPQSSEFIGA
Method in brief: as §1

EGFR T790ML858R = EGFR T790ML858R (Homo sapiens, UniProt P00533, L858R/T790M); assay: EGFR T790ML858R Lance assay; assay type: biochemical
Chain of EGFR T790ML858R (P00533 25-1210 T790M/L858R): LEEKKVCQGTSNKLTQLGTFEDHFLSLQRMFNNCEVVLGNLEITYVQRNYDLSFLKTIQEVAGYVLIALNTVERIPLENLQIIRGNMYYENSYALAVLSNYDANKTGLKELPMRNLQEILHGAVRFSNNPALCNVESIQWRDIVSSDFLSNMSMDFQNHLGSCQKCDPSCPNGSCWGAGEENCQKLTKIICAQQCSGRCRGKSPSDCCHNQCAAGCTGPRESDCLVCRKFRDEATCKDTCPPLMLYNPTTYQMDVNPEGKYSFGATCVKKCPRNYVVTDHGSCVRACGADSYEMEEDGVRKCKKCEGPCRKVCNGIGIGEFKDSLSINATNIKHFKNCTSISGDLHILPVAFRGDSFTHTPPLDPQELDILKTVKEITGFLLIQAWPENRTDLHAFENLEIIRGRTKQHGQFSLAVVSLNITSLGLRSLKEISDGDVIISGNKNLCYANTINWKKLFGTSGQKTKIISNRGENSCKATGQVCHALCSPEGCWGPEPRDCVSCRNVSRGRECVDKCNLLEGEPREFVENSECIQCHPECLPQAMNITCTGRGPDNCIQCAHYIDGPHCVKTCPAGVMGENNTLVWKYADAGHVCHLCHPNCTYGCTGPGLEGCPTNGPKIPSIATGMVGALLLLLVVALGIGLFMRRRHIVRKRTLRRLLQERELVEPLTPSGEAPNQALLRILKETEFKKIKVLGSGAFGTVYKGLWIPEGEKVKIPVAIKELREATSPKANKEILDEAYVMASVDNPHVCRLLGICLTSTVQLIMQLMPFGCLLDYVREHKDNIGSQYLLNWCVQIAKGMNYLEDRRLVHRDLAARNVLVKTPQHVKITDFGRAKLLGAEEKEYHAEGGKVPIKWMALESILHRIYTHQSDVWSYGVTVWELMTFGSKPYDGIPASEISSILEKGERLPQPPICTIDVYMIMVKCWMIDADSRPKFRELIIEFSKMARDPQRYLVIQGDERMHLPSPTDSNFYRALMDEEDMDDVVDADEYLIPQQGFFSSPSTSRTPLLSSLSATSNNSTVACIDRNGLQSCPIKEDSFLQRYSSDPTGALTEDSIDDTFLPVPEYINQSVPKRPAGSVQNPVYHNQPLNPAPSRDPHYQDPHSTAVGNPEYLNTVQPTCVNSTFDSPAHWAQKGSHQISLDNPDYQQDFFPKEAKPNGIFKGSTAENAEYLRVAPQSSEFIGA
Description: as §2

A431 = A431 CellTiter-Glo; assay type: cell-based; details: Homo sapiens, A-431; 72 h compound incubation; read-out: A431 CTG IC50
Method in brief: as §3

HER2 INS YVMA = target: T1, HER2 INS YVMA (Homo sapiens, UniProt P04626, INS775YVMA); assay: Lance Kinase Activity Assay, HER2 INS YVMA (Her2 Exon 20 INSYVMA Lance); assay type: biochemical; details: biochemical Lance assay
T1 construct: purchased DPF
T1 sequence (P04626 with tags, fused parts or gaps INS775YVMA): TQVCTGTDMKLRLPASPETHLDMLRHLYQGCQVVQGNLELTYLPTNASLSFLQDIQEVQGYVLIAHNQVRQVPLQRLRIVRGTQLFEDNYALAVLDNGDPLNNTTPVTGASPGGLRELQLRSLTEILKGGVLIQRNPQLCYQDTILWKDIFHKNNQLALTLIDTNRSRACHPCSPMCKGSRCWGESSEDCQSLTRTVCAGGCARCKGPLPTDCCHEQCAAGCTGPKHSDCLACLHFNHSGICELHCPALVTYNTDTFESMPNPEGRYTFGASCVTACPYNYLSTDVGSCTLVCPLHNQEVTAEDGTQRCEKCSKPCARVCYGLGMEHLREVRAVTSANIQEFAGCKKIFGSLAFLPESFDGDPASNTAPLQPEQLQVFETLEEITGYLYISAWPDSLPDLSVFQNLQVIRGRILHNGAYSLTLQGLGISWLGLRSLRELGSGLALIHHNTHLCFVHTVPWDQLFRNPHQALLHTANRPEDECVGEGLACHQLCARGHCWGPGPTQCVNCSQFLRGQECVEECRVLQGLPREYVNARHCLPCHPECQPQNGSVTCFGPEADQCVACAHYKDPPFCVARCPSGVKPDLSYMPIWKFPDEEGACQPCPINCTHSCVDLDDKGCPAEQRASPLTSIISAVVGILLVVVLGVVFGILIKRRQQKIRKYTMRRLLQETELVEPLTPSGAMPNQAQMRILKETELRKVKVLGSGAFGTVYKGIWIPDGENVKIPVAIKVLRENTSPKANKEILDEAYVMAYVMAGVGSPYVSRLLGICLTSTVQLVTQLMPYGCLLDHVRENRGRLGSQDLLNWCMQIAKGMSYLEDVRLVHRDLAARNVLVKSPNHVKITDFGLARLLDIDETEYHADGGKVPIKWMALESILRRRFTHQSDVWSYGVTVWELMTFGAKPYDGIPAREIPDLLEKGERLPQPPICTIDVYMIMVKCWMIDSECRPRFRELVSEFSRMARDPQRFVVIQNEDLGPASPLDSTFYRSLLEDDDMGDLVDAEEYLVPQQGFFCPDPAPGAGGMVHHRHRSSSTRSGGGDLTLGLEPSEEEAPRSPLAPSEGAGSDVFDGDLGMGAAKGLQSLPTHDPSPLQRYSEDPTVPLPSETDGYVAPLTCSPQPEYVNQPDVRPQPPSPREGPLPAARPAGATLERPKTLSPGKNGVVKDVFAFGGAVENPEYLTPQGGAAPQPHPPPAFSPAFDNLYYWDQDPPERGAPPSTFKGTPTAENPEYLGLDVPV
Method in brief: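 Kinase phosphorylates a ULight-labelled peptide substrate; Eu anti-phospho antibody gives TR-FRET (ex 340 nm, em 665/615 nm). Compounds in 1:3 serial dilution over 8 steps, reaction started with ATP, 1 h at room temperature, stopped with EDTA-containing detection mix for 1 h. IC50 from sigmoidal dose-response curves.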

Structure (SMILES) | GI50 [1] | Stability in presence of mouse liver microsomes without cofactor NADPH [% remaining after 50 min] [2] | pIC50 (EGFR wt) | pIC50 (H1975) | GI50 [3] | pIC50 (EGFR T790ML858R) | pIC50 (A431) | pIC50 (HER2 INS YVMA)
C=CC(=O)Nc1cc(-c2c(-c3ccc(CN(C)C)cc3)[nH]c3ncc(C(=O)OC(C)C)cc23)cc(F)c1C [Example 177, isopropyl 3-(3-acrylamido-5-fluoro-4-methylphenyl)-2-(4-((dimethylamino)methyl)phenyl)-1H-pyrrolo[2,3-b]pyridine-5-carboxylate] | 0.1 to 0.5 µM | >99 % remaining after 50 min | ≥ 7.00 | 6.30 to 7.00 | 0.1 to 0.5 µM | ≥ 7.00 | 4.00 to 6.00 | ≥ 7.00
Cc1ccc(-c2c(-c3ccc(N4CCN(C)CC4)cc3)[nH]c3nccc(Cl)c23)cc1NC(=O)CCl [Example 146, 2-chloro-N-(5-(4-chloro-2-(4-(4-methylpiperazin-1-yl)phenyl)-1H-pyrrolo[2,3-b]pyridin-3-yl)-2-methylphenyl)acetamide 2,2,2-trifluoroacetate] | 0.1 to 0.5 µM | 9 % remaining after 50 min | ≥ 7.00 | ≥ 7.00 | 0.1 to 0.5 µM | ≥ 7.00 | 6.30 to 7.00 | ≥ 7.00
C=CC(=O)N1CCOc2ccc(-c3c(-c4ccc(N5CCN(C(C)C)CC5)cc4)[nH]c4nccc(Cl)c34)cc21 [Example 85, 1-(6-(4-chloro-2-(4-(4-isopropylpiperazin-1-yl)phenyl)-1H-pyrrolo[2,3-b]pyridin-3-yl)-2H-benzo[b][1,4]oxazin-4(3H)-yl)prop-2-en-1-one] | 0.1 to 0.5 µM | >99 % remaining after 50 min | ≥ 7.00 | 6.30 to 7.00 | 0.1 to 0.5 µM | ≥ 7.00 | 6.00 to 6.30 | ≥ 7.00
C=CC(=O)N1CCCc2ccc(-c3c(-c4cccc(CN5CCN(C)CC5)c4)[nH]c4nccc(Cl)c34)cc21 [Example 95, 1-(7-(4-chloro-2-(3-((4-methylpiperazin-1-yl)methyl)phenyl)-1H-pyrrolo[2,3-b]pyridin-3-yl)-3,4-dihydroquinolin-1(2H)-yl)prop-2-en-1-one] | 1 to 10 µM | >99 % remaining after 50 min | ≥ 7.00 | 6.00 to 6.30 | 1 to 10 µM | ≥ 7.00 | 4.00 to 6.00 | ≥ 7.00
C=CC(=O)N1CCCc2ccc(-c3c(-c4ccc(N5CCN(C)CC5)nc4)[nH]c4nccc(Cl)c34)cc21 [Example 93, 1-(7-(4-chloro-2-(6-(4-methylpiperazin-1-yl)pyridin-3-yl)-1H-pyrrolo[2,3-b]pyridin-3-yl)-3,4-dihydroquinolin-1(2H)-yl)prop-2-en-1-one] | 0.5 to 1 µM | >99 % remaining after 50 min | ≥ 7.00 | 6.00 to 6.30 | 1 to 10 µM | ≥ 7.00 | 4.00 to 6.00 | 6.30 to 7.00
C=CC(=O)Nc1cc(-c2c(-c3cccc(OCCN4CCCC4)c3)[nH]c3nccc(Cl)c23)ccc1C [Example 37, N-(5-(4-chloro-2-(3-(2-(pyrrolidin-1-yl)ethoxy)phenyl)-1H-pyrrolo[2,3-b]pyridin-3-yl)-2-methylphenyl)acrylamide] | 0.1 to 0.5 µM | >99 % remaining after 50 min | ≥ 7.00 | ≥ 7.00 | 0.1 to 0.5 µM | ≥ 7.00 | 6.30 to 7.00 | ≥ 7.00
C=CC(=O)N1CCc2ccc(-c3c(-c4ccc(N5CCN(CC)CC5)cc4)[nH]c4nccc(Cl)c34)cc21 [Example 63, 1-(6-(4-chloro-2-(4-(4-ethylpiperazin-1-yl)phenyl)-1H-pyrrolo[2,3-b]pyridin-3-yl)indolin-1-yl)prop-2-en-1-one] | 0.1 to 0.5 µM | >99 % remaining after 50 min | ≥ 7.00 | ≥ 7.00 | 0.1 to 0.5 µM | ≥ 7.00 | 6.00 to 6.30 | ≥ 7.00
